According to US20130040935A1, “CYCLIC KETO-ENOLS FOR THERAPY” (BAYER INTELLECTUAL PROPERTY GMBH, priority 2010, published 2013):
Read-outs that look alike come from different tables or passages of the source.

How the values were obtained:
[1] = test system: MCF7; experiment: Cell proliferation assay (CellTiter-Glo, 96 h), MCF7; format: cell-based; details: Homo sapiens
Procedure: In accordance with the invention, the substances were tested in cell-based assays for the ability of the substances of inhibiting tumour cell proliferation after a 96-hour incubation with the substance. Cell viability was tested using the CellTiter-Glo® luminescent cell viability assay (Promega). The cells were sown at a density of 2000-5000 cells/well (depending on the cell line) in 100 μl growth medium on 96-well microtitre plates. For each cell line examined, cells were sown on a separate plate to determine the luminescence at t=0 hours and t=96 hours. After overnight incubation at 37° C., the luminescence values for the t=0 samples were determined. The dose plates for the t=96 hours points in time were treated with substances diluted with growth medium. The cells were then incubated at 37° C. for 96 hours, and the luminescence values for the t=96 hours sample were then determined. For data analysis, the t=0 values were subtracted from the t=96 hour values for treated and untreated samples. The differences in luminescence in percent between substance-treated samples and control values were used to determine the growth inhibition in percent.
The substances were tested in the following cell lines which represent the stated indications in an exemplary manner: […]

[2] = target: T1, human ACC1 (acetyl-coenzyme A carboxylase alpha transcript variant 1) (Homo sapiens, UniProt Q13085); experiment: Human ACC1 enzyme assay, Assay B1 (ADP-Glo); format: biochemical
T1 construct: FLAG (C); made in house; host or cells: baculovirus-infected insect cells (Hi5)

[3] = target: human ACC2 (acetyl-coenzyme A carboxylase 2) (Homo sapiens, UniProt O00763); experiment: Human ACC2 enzyme assay, Assay B2 (ADP-Glo);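 note: human ACC2 activity read as ADP product, detected by luciferase glow luminescence after residual ATP removal, enzyme near 2 ng/µl in linear range, detection steps at 22 °C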
Sequence of human ACC2 (acetyl-coenzyme A carboxylase 2) (O00763 27-2458 limits assumed): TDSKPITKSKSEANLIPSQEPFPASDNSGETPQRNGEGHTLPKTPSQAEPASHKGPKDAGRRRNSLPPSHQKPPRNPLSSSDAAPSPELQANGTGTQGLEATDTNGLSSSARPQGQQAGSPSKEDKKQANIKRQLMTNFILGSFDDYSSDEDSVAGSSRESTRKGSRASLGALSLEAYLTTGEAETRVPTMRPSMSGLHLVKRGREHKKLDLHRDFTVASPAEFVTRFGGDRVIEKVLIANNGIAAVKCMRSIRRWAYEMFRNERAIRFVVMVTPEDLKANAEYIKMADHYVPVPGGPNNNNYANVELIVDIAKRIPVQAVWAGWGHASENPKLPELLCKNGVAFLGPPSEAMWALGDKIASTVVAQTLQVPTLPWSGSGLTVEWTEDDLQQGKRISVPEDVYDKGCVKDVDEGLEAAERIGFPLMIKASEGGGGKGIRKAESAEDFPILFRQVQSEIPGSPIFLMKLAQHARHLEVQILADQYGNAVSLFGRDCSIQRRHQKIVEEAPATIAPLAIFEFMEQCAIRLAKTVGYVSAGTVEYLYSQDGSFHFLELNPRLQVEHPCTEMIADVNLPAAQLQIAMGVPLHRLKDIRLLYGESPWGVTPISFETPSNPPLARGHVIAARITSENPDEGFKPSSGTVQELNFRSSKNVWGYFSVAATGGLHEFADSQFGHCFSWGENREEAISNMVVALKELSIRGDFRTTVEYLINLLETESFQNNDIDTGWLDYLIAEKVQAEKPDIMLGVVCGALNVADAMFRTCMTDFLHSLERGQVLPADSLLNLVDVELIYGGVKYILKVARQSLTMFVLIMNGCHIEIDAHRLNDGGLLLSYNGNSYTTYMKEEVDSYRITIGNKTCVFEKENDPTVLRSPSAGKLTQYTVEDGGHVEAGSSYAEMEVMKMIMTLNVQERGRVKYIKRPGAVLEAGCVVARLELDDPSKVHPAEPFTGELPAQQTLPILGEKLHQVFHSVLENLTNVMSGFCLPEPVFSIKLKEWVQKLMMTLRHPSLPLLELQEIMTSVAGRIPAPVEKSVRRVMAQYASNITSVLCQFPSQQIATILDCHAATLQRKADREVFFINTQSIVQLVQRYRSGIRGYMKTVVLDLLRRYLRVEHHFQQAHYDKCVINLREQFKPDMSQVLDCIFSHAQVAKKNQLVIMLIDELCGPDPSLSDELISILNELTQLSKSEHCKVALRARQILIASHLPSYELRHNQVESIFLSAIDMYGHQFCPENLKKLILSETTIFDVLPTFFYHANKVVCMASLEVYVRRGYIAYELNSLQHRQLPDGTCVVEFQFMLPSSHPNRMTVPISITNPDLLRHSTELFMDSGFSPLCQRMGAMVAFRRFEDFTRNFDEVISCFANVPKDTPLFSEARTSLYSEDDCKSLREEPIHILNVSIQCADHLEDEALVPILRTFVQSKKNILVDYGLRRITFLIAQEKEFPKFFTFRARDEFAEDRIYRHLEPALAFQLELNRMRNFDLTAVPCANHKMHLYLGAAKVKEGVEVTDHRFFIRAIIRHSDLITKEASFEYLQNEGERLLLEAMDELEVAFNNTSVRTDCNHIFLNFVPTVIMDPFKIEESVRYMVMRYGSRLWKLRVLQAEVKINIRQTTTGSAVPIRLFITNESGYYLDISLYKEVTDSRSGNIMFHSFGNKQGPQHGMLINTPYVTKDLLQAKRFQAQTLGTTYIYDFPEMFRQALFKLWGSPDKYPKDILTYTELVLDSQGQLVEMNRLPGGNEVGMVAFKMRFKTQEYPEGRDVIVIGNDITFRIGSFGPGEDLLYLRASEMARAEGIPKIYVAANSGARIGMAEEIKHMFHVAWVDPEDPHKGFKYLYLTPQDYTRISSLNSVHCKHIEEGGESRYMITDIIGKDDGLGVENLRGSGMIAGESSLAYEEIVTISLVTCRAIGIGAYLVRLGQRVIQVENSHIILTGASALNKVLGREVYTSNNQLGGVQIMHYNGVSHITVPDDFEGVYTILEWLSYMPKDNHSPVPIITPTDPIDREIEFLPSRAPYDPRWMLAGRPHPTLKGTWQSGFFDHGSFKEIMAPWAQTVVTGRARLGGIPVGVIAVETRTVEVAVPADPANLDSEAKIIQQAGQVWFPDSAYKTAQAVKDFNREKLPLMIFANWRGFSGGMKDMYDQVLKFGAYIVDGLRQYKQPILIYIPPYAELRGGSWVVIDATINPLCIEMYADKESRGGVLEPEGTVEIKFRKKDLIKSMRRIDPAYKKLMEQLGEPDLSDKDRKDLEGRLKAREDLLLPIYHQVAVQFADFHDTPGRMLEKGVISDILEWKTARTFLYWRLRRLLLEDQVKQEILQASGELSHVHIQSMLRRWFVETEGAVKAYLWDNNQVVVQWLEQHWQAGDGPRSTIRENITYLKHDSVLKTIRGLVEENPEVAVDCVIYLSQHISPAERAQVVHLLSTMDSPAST

[4] = Assay B1, read-out: ACC 1 (=B1) IC50
[5] = Assay B1, ADP-Glo, read-out: ACC 1 (=B1) IC50

Compound | IC50 [3] [µM] | IC50 [2] [µM] | further results
CO[C@H]1CC[C@]2(CC1)NC(=O)C(c1c(C)cc(C)c(-c3ccc(F)cc3)c1C)=C2O [1-42, (5s,8s)-3-(4′-fluoro-2,4,6-trimethylbiphenyl-3-yl)-4-hydroxy-8-methoxy-1-azaspiro[4.5]dec-3-en-2-one] | – | – | IC50 ([1]; MCF7, Table 7, 96-hour incubation): 1.28 µM
Cc1ccc(-c2ccc(Cl)cc2)cc1C1=C(O)C2(CCCC(C)C2)NC1=O (stereo not drawn) [1-82, 3-(4′-chloro-4-methylbiphenyl-3-yl)-4-hydroxy-7-methyl-1-azaspiro[4.5]dec-3-en-2-one] | 1.32 | – | IC50 [2, 4]: 0.539 µM
CCCC1CCC2(CC1)NC(=O)C(c1cc(-c3ccc(Cl)cc3)ccc1C)=C2O (stereo not drawn) [1-83, 3-(4′-chloro-4-methylbiphenyl-3-yl)-4-hydroxy-8-propyl-1-azaspiro[4.5]dec-3-en-2-one] | 1.88 | – | IC50 [2, 4]: 0.582 µM
Cc1ccc(-c2ccc(Cl)cc2)cc1C1=C(O)C2(CC2)NC1=O [1-84, 6-(4′-chloro-4-methylbiphenyl-3-yl)-7-hydroxy-4-azaspiro[2.4]hept-6-en-5-one] | > 20 | – | IC50 [2, 4]: 0.65 µM
Cc1ccc(-c2ccc(Cl)cc2)cc1C1=C(O)C2(CCCC2)NC1=O [1-85, 3-(4′-chloro-4-methylbiphenyl-3-yl)-4-hydroxy-1-azaspiro[4.4]non-3-en-2-one] | 9.21 | – | IC50 [2, 4]: 0.251 µM
Cc1ccc(-c2ccc(Cl)cc2)cc1C1=C(O)C(C)(C2CC2)NC1=O (stereo not drawn) [1-86, 3-(4′-chloro-4-methylbiphenyl-3-yl)-5-cyclopropyl-4-hydroxy-5-methyl-1,5-dihydro-2H-pyrrol-2-one] | 6.12 | – | IC50 [2, 4]: 0.575 µM
CC[C@]1(OC)CC[C@@]2(CC1)NC(=O)C(c1c(C)ccc(-c3ccc(Cl)cc3)c1C)=C2O [1-88, (5r,8r)-3-(4′-chloro-2,4-dimethylbiphenyl-3-yl)-8-ethyl-4-hydroxy-8-methoxy-1-azaspiro[4.5]dec-3-en-2-one] | 11.7 | 0.452 | –
CC[C@]1(OC)CC[C@@]2(CC1)NC(=O)C(c1c(C)ccc(-c3ccc(F)cc3)c1C)=C2O [1-89, (5r,8r)-8-ethyl-3-(4′-fluoro-2,4-dimethylbiphenyl-3-yl)-4-hydroxy-8-methoxy-1-azaspiro[4.5]dec-3-en-2-one] | 13.6 | 2.07 | –
CCC1CCC2(CC1)OC(=O)C(c1cc(-c3ccc(Cl)cc3)ccc1C)=C2O (stereo not drawn) [2-1, 3-(4′-chloro-4-methylbiphenyl-3-yl)-8-ethyl-4-hydroxy-1-oxaspiro[4.5]dec-3-en-2-one] | 15.2 | – | IC50 [2, 5]: 1.14 µM
Cc1ccc(-c2ccc(Cl)cc2)c(C)c1C1=C(O)C2(CCCC2)OC1=O [2-2, 3-(4′-chloro-2,4-dimethylbiphenyl-3-yl)-4-hydroxy-1-oxaspiro[4.4]non-32--en-2-one] | > 20 | 2.36 | –
Cc1cc(C)c(-c2ccc(Cl)cc2)c(C)c1C1=C(O)C(C)(C)OC1=O [2-5, 3-(4′-chloro-2,4,6-trimethylbiphenyl-3-yl)-4-hydroxy-5,5-dimethylfuran-2(5H)-one] | 7.34 | 1.26 | –
Cc1ccc(-c2ccc(Cl)cc2)cc1C1=C(O)C2(CCCCC2)OC1=O [2-10, 3-(4′-chloro-4-methylbiphenyl-3-yl)-4-hydroxy-1-oxaspiro[4.5]dec-3-en-2-one] | 4.7 | – | IC50 [2, 5]: 0.067 µM
COC1CCCC2(C1)OC(=O)C(c1cc(-c3ccc(Cl)cc3)c(C)cc1C)=C2O (stereo not drawn) [2-11, 3-(4′-chloro-4,6-dimethylbiphenyl-3-yl)-4-hydroxy-7-methoxy-1-oxaspiro[4.5]dec-3-en-2-one] | 12.4 | – | IC50 [2, 5]: 1.26 µM
COC1CCCC2(C1)OC(=O)C(c1cc(-c3ccc(Cl)cc3)ccc1C)=C2O (stereo not drawn) [2-14, 3-(4′-chloro-4-methylbiphenyl-3-yl)-4-hydroxy-7-methoxy-1-oxaspiro[4.5]dec-3-en-2-one] | > 20 | – | IC50 [2, 5]: 0.772 µM
Cc1ccc(-c2ccc(Cl)cc2)cc1C1=C(O)C2(CCC3(CC2)OCCO3)OC1=O [2-15, 11-(4′-chloro-4-methylbiphenyl-3-yl)-12-hydroxy-1,4,9-trioxadispiro[4.2.4.2]tetradec-11-en-10-one] | 8.02 | – | IC50 [2, 5]: 0.111 µM
COCC1CCC2(CC1)OC(=O)C(c1cc(-c3ccc(Cl)cc3)ccc1Cl)=C2O (stereo not drawn) [2-16, 3-(4,4′-dichlorobiphenyl-3-yl)-4-hydroxy-8-(methoxymethyl)-1-oxaspiro[4.5]dec-3-en-2-one] | 5.31 | 0.138 | –
COCCC1CCCC2(C1)OC(=O)C(c1cc(-c3ccc(Cl)cc3)ccc1Cl)=C2O (stereo not drawn) [2-19, 3-(4,4′-dichlorobiphenyl-3-yl)-4-hydroxy-7-(2 methoxyethyl)-1-oxaspiro[4.5]dec-3-en-2-one] | 13.6 | – | IC50 [2, 5]: 0.812 µM

Compound | IC50 [3] [µM] | IC50 [2] [µM] | further results
O=C1OC2(CCC3(CCCO3)CC2)C(O)=C1c1cc(-c2ccc(Cl)cc2)ccc1Cl (stereo not drawn) [2-27, 3-(4,4′-dichlorobiphenyl-3-yl)-4-hydroxy-1,9-dioxadispiro[4.2.4.2]tetradec-3-en-2-one] | 7.01 | 0.801 | –
Cc1ccc(-c2ccc(Cl)cc2)cc1C1=C(O)C2(CCC3(CCCO3)CC2)OC1=O (stereo not drawn) [2-29, 3-(4′-chloro-4-methylbiphenyl-3-yl)-4-hydroxy-1,9-dioxadispiro[4.2.4.2]tetradec-3-en-2-one] | 3 | – | IC50 [2, 5]: 0.206 µM
COC1CCC2(CC1)OC(=O)C(c1c(C)ccc(-c3ccc(Cl)cc3)c1C)=C2O (stereo not drawn) [2-34, 3-(4′-chloro-2,4-dimethylbiphenyl-3-yl)-4-hydroxy-8-methoxy-1-oxaspiro[4.5]dec-3-en-2-one] | – | – | IC50 ([1]; MCF7 cells): 0.429 µM
CCCC1CCC2(CC1)OC(=O)C(c1cc(-c3ccc(Cl)cc3)ccc1C)=C2O (stereo not drawn) [2-36, 3-(4′-chloro-4-methylbiphenyl-3-yl)-4-hydroxy-8-propyl-1-oxaspiro[4.5]dec-3-en-2-one] | 2.41 | 0.447 | –
Cc1ccc(-c2ccc(Cl)cc2)cc1C1=C(O)C2(CCCCCC2)OC1=O [2-38, 3-(4′-chloro-4-methylbiphenyl-3-yl)-4-hydroxy-1-oxaspiro[4.6]undec-3-en-2-one] | 7.38 | 0.393 | –
COC1CCC2(CC1)OC(=O)C(c1cc(-c3ccc(Cl)cc3)ccc1C)=C2O (stereo not drawn) [2-39, 3-(4′-chloro-4-methylbiphenyl-3-yl)-4-hydroxy-8-methoxy-1-oxaspiro[4.5]dec-3-en-2-one] | 5.27 | – | IC50 [2, 5]: 0.162 µM
Cc1cc(C)c(-c2ccc(Cl)cc2)cc1C1=C(O)C2(CCOCC2)OC1=O [2-41, 3-(4′-chloro-4,6-dimethylbiphenyl-3-yl)-4-hydroxy-1,8-dioxaspiro[4.5]dec-3-en-2-one] | 6.59 | – | IC50 [2, 5]: 0.425 µM
Cc1cc(C)c(-c2ccc(Cl)cc2)cc1C1=C(O)C2(CCCOC2)OC1=O (stereo not drawn) [2-46, 3-(4′-chloro-4,6-dimethylbiphenyl-3-yl)-4-hydroxy-1,7-dioxaspiro[4.5]dec-3-en-2-one] | 5.26 | – | IC50 [2, 5]: 0.42 µM
Cc1cc(C)c(-c2ccc(Cl)cc2)c(C)c1C1=C(O)C2(CCCC2)OC1=O [2-49, 3-(4′-chloro-2,4,6-trimethylbiphenyl-3-yl)-4-hydroxy-1-oxaspiro[4.4]non-3-en-2-one] | > 20 | ≥ 20 | –
Cc1ccc(-c2cccc(Cl)c2)cc1C1=C(O)C2(CCCCCC2)OC1=O [2-50, 3-(3′-chloro-4-methylbiphenyl-3-yl)-4-hydroxy-1-oxaspiro[4.6]undec-3-en-2-one] | 15.4 | 1.3 | –
COC1CCC2(CC1)SC(=O)C(c1cc(-c3ccc(Cl)cc3)ccc1C)=C2O (stereo not drawn) [3-1, 3-(4′-chloro-4-methylbiphenyl-3-yl)-4-hydroxy-8-methoxy-1-thiaspiro[4.5]dec-3-en-2-one] | 15.5 | 1.41 | –
Cc1ccc(-c2cccc(Cl)c2)cc1C1=C(O)C2(CCCCC2)CC1=O [6-3, 3-(3′-chloro-4-methylbiphenyl-3-yl)-4-hydroxyspiro[4.5]dec-3-en-2-one] | > 20 | – | IC50 [2, 4]: 1.17 µM
Cc1ccc(-c2ccc(Cl)cc2)cc1C1=C(O)C2(CCCC2)CC1=O [6-4, 3-(4′-chloro-4-methylbiphenyl-3-yl)-4-hydroxyspiro[4.4]non-3-en-2-one] | 4.63 | – | IC50 [2, 4]: 0.218 µM
Cc1ccc(-c2ccc(Cl)cc2)c(C)c1C1C(=O)N2CCOCCN2C1=O [8-8, 8-(4′-chloro-2,4-dimethylbiphenyl-3-yl)tetrahydro-7H-pyrazolo[1,2-d][1,4,5]oxadiazepine-7,9(8H)-dione] | > 20 | 1.31 | –
Cc1ccc(-c2ccc(C(F)(F)F)cc2)cc1-c1c(O)c2ccc(Cl)cc2[nH]c1=O [9-6, 7-chloro-4-hydroxy-3-[4-methyl-4′-(trifluoromethy)biphenyl-3-yl]quinolin-2(1H)-one] | > 20 | – | IC50 [2, 4]: 1.28 µM
Cc1cc(C)c(-c2c(O)c3ccc(Cl)cc3[nH]c2=O)cc1-c1ccc(Cl)cc1 [9-12, 7-chloro-3-(4′-chloro-4,6-dimethyl-biphenyl-3-yl)-4-hydroxyquinolin-2(1H)-one] | 2.09 | – | IC50 [2, 4]: 0.376 µM
O=c1[nH]c2cc(Cl)ccc2c(O)c1-c1cc(-c2ccc(Cl)cc2)ccc1Cl [9-13, 7-chloro-3-(4,4′-dichlorobiphenyl-3-yl)-4-hydroxyquinolin-2(1H)-one] | 3.96 | – | IC50 [2, 4]: 0.191 µM
